From article PMC2185891 (The Journal of Experimental Medicine, 1980)

Assays:
[1] = biological target: T1, N-formylated peptide receptor on U937 cells (Homo sapiens, UniProt P21462); test: fMet-Leu-[3H]Phe-binding assay on U937 cells; settings: U937 cells incubated with cytochalasin B
T1 sequence (P21462 1-350): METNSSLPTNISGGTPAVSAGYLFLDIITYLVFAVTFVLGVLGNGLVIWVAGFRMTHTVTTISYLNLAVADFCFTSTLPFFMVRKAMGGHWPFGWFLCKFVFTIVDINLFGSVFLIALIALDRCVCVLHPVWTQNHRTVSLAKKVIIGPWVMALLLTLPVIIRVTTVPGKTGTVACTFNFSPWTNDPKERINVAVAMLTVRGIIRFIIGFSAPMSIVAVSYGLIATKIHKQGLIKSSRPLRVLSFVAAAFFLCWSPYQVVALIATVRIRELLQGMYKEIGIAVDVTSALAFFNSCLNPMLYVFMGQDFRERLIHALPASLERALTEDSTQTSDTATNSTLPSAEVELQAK

[2] = test system: human peripheral blood monocytes; settings: ref M. C. Pike and R. Snyderman. Unpublished observation; cited from earlier work
U937 cells = test: Chemotaxis of U937 cells, modified Boyden chambers; assay type: cell-based, human; settings: U937 cells cultured 48 h with lymphokines; Fig. 4

Compound	effect on amount of fMet-Leu-[3H]Phe bound [1]	potency for human monocyte chemotaxis relative to fMet-Leu-Phe [2]	relative chemotactic potency (U937 cells)
C=C1[C@@H](C)[C@H]2[C@H](Cc3ccccc3)NC(=O)[C@]23OC(=O)/C=C/[C@H](O)CCC[C@@H](C)C/C=C/[C@H]3[C@@H]1O [cytochalasin B]	did not affect	–	–
fMet-Met-Met [N-formyl-methionyl-methionyl-methionine]	–	less than that of fMet-Leu-Phe	approximately equipotent
N-formyl-norleucyl-leucyl-phenylalanine [fNle-Leu-Phe]	–	less than that of fMet-Leu-Phe	approximately equipotent
